Measurements: patent US11767286B2, “Phenylpropionate compound, preparation method for same, and applications thereof” (SUZHOU PHARMAVAN CO., LTD, priority 2017, dated 2023)
Like-named read-outs stand apart in the source and are kept apart here.

Legend:
[1] = test system: rats with acute cerebral ischemia-reperfusion; test: Cerebral infarction area of rats with acute cerebral ischemia-reperfusion (MCAO, suture method); type: in vivo, SD rats; design: Cerebral Infarction Area: unit not given here; conditions: n=5; for Cerebral Infarction Area: 4 mg/kg iv 2 h after reperfusion (2 h MCAO), sampled 4 h after administration; for inhibition in vivo at 4 mg/kg: Rattus norvegicus, 4 h, 4 mg/kg iv 2 h after reperfusion, vs solvent control, read-out: Percentage of Cerebral Infarction Area Reduction
Procedure: (§1) Trial method: Effects on inflammatory factors and blood viscosity of rats with acute cerebral ischemia-reperfusion: 70 Male SD rats underwent an MACO surgery by a suture method, and after the surgery, alive rats were randomly grouped (into 7 groups, the number of successful animals in each group was guaranteed to be 6 to 8). Blood perfusion was recovered 2 h after MCAO, and corresponding trial medicaments were intravenously injected 2 h after blood reperfusion. 4 hours after the administration, blood was collected and the rats were sacrificed to take out brain tissues. The brain tissues and part of the blood were centrifuged to collect serum which was detected for inflammatory factors, and part of the blood was detected for blood viscosity by using a blood viscometer. Detected indicators: cerebral infarction area; inflammatory factors IL-1β and TNF-α; and blood viscosity.
Table 1 lists results of effects of phenylpropionate compounds (4 mg/kg) on cerebral infarction area of rats with acute cerebral ischemia (n=5).

[2] = test system: rats with acute cerebral ischemia-reperfusion; test: Blood viscosity of rats with acute cerebral ischemia-reperfusion (blood viscometer); type: in vivo, SD rats; design: unit not given here; conditions: 4 mg/kg iv 2 h after reperfusion; blood 4 h after administration; n=5
Procedure: as §1
Table 2 lists results of effects of phenylpropionate compounds (4 mg/kg) on blood viscosity of rats (n=5).

[3] = test system: TNF-α; test: Inflammatory factor TNF-α in blood and brain tissues of rats with acute cerebral ischemia-reperfusion; type: in vivo, SD rats; conditions: 4 mg/kg iv 2 h after reperfusion; 4 h after administration; n=5
Procedure: as §1
(§2) Table 3 lists results of effects of phenylpropionate compounds (4 mg/kg) on inflammatory factors in blood and brain tissues of rats (n=5).

[4] = test system: IL-1β; test: Inflammatory factor IL-1β in blood and brain tissues of rats with acute cerebral ischemia-reperfusion; type: in vivo, SD rats; conditions: 4 mg/kg iv 2 h after reperfusion; 4 h after administration; n=5
Procedure: as §1, §2

[5] = test system: platelet aggregation induced with ADP; test: Maximum platelet aggregation rate of rabbits, induced with ADP; type: cell-based; conditions: rabbit plasma, 4 mg/kg as printed, n=3; for inhibition at 4 mg/kg: Oryctolagus cuniculus, Platelet
Procedure: (§3) Effects on maximum platelet aggregation rate of rabbits: 3 Rabbits were anesthetized, and blood was collected from the heart to obtain 14 parts of plasma for each rabbit (1 ml per part of plasma). 7 Parts were induced with ADP to allow platelet aggregation, and 7 parts were induced with a platelet activating factor. After the induction, a solvent, positive control drug aspirin, and 5 samples to be trialed were separately added to the plasma, and maximum platelet aggregation rate was detected with a platelet aggregation meter. The trials were repeated 3 times, and an average was taken. Detected indicator: maximum platelet aggregation rate.
(§4) Table 4 lists results of effects of phenylpropionate compounds (4 mg/kg) on platelet aggregation rate of rabbits (n=3).

[6] = test system: platelet aggregation induced with a platelet activating factor; test: Maximum platelet aggregation rate of rabbits, induced with PAF; type: cell-based; conditions: rabbit plasma, 4 mg/kg as printed; for inhibition at 4 mg/kg: Oryctolagus cuniculus, Platelet, n=3, read-out: Inhibiton rate on Aggregation; for Maximum Aggregation Rate: n=3
Procedure: as §3, §4

[7] = test system: SD rat model of focal ischemia-reperfusion; test: Dose-effect relationship in SD rat model of focal ischemia-reperfusion (MCAO); type: in vivo, SD rats; conditions: 4.0 mg/kg, given 2 h after reperfusion, mean ± standard error; for Score of Symptoms of Neurological Deficits: 48 h, modified Bederson 5-point scale; for Infarction area: evaluated after 48 h
Procedure: In this example, phenylpropionate compounds were studied for dose-effect relationship, with D-bornyl ferulate (administrated at 4.0 mg/kg) and D-tanshinol borneol ester (administrated at 4.0 mg/kg) as positive control drugs. Structures of D-bornyl ferulate (Patent Application No.: 201510243181.5) and D-tanshinol borneol ester compounds are as follows:
Trial method: A cerebral ischemia reperfusion model of middle cerebral artery occlusion (MCAO) was prepared by an internal carotid artery suture method. An animal was anesthetized with 10% chloral hydrate (3.6 mL/kg) and then fixed on an operating table in a supine position. Its skin was disinfected, and a midline incision was made on the neck. The right common carotid artery, external carotid artery, and internal carotid artery were separated, the vagus nerve was gently striped off, and the external carotid artery was ligated and cut. The common carotid artery was clamped at the proximal end. […] The nylon thread was advanced through the bifurcation of the common carotid artery into the internal carotid artery, and then was slowly inserted until there was slight resistance (about 20 mm from the bifurcation) to block all the blood supply to the middle cerebral artery. 2 h after cerebral ischemia, the nylon thread was gently pulled out to restore blood supply for reperfusion, and the neck skin was sutured and disinfected. The animal was put back in a cage and raised. During the modeling operation, animals with abnormal conditions due to anesthesia, surgery, etc. were excluded, and successfully modeled animals were randomly grouped. Schemes were set according to different trial doses, and drug treatment was given 2 h after cerebral ischemia-reperfusion. Death conditions were recorded every day after the surgery, and indicators were evaluated after 48 h. In the whole trial process, general conditions were observed, mainly including: death, coma, breathing, urine and feces traits, hair colors, mental status, vomiting and vomitus, bleeding, convulsion, spasm, etc. Abnormal animals due to unexpected factors were excluded. Finally, unblinding was conducted by a person who made blind trials.
Evaluated indicator: (1) Evaluation of symptoms of neurological deficits: The symptoms of neurological deficits were evaluated by using a modified Bederson 5-point scale. A single-blind method was used for evaluating the symptoms of neurological deficits in rats with brain trauma. That is, a trial designer marked animals in accordance with groups, and an experimenter who scored the symptoms of neurological deficits had no knowledge of how the animals were grouped. After scoring was completed, the scorer submitted scoring results for various marks to the designer, and the designer performed unblinding to obtain scores of animals in each trial group. (2) Measurement of cerebral infarction area: A method reported in the literature was used. An animal was anesthetized with 10% chloral hydrate and decapitated to collect brain. The olfactory bulb, cerebellum and lower brain stem were removed. Blood stains on the surface of the brain were rinsed with normal saline, the residual water stains on the surface were absorbed, and the brain was placed at −80° C. for 7 min. After the brain was taken out, a coronal section was immediately made at downwards and vertical to the sight intersection plane, and brain slices were made every 2 mm backwards. Brain slices were placed in a TTC (20 g/L) dye solution prepared with 0.9% normal saline, and incubated at 37° C. for 90 min. Normal brain tissues were stained deep red, and ischemic brain tissues were pale-white. After rinsed with normal saline, the brain sections were quickly arranged in order from front to back, the residual water stains on the surface were absorbed to dryness, and pictures were taken. Image analysis software was used for statistics on the pictures. […]

[8] = Distribution in brain: plasma and intracerebral concentrations after intravenous injection; type: in vivo; conditions: both sexes, rat, rats, 4 mg/kg iv; for Kp at 10 min / Kp at 60 min / Kp at 180 min: brain/plasma, read-out: Brain/Blood Concentration Ratio
Procedure: In this example, Compounds A to E, D-bornyl ferulate, and D-tanshinol borneol ester were measured for distribution in brain. Structures of D-bornyl ferulate (Patent Application No.: 201510243181.5) and D-tanshinol borneol ester compounds are as follows:
Method for testing distribution in brain: 42 rats with a weight range of 200±20 g were taken. The rats were randomly divided into 7 groups, with 6 rats per group, half male and half female. Rats were fasted with free access to water for 12 h and then intravenously injected with 4 mg/kg of a compound. Rats in the 3 groups were sacrificed through femoral artery bleeding and collected for blood 10 min, 60 min, 180 min after administration, respectively. Brains were taken out, 0.2 g was weighted, and 1 mL of pure water was added for homogenizing. The blood samples and brain homogenate samples were stored at −20° C.
Distribution of Compounds A to E, and D-bornyl ferulate and D-tanshinol borneol ester compounds in brain: Data on concentrations of Compounds A to E, D-bornyl ferulate, and D-tanshinol borneol ester in plasma and intracerebral in rats intravenously injected with 4 mg/kg of Compounds A to E, D-bornyl ferulate, and D-tanshinol borneol ester are listed in Table 9.

[9] = brain, read-out: Mean Intracerebral Concentration
[10] = plasma, read-out: Mean Plasma Concentration

Row | SMILES | Cerebral Infarction Area [1] | inhibition in vivo at 4 mg/kg [1] | Blood viscosity, High Shear [2] | Blood viscosity, Low Shear [2] | TNF-α [3] | IL-1β [4] | inhibition at 4 mg/kg [5] | Maximum Aggregation Rate [5] | inhibition at 4 mg/kg [6] | Maximum Aggregation Rate [6] | Score of Symptoms of Neurological Deficits [7] | Kp at 10 min [8] | Kp at 60 min [8] | Kp at 180 min [8] | concentration at 10 min [8, 9] | concentration at 60 min [8, 9] | concentration at 180 min [8, 9] | concentration at 10 min [8, 10] | concentration at 60 min [8, 10] | concentration at 180 min [8, 10] | also measured
1 | CC1(C)[C@@H]2CC[C@@]1(C)[C@@H](OC(=O)[C@H](O)Cc1ccc(O)c(O)c1)C2 [D-tanshinol borneol ester, reference compound] | 25.6 ± 4.65 | 30.2% | 2.76 ± 0.134 | 14.1 ± 0.658 | 687 ± 35.4 ng/L | 67.1 ± 8.8 ng/L | 43.8% | 18.5 ± 4.36 % | 33.8% | 47.3 ± 4.53 % | 1.98 ± 0.17 | 0.47 | 2.6 | 3.4 | 1040 ± 168 ng/g | 644 ± 99.7 ng/g | 177 ± 35.2 ng/g | 2210 ± 546 ng/mL | 244 ± 62.4 ng/mL | 52.8 ± 34.1 ng/mL | Infarction area [7]: 22.76 ± 2.42 %
2 | COc1cc(CCC(=O)O[C@H]2C[C@H]3CC[C@]2(C)C3(C)C)cc(O)c1O [Compound B] | 18.7 ± 7.16 | 49% | 2.73 ± 0.122 | 13.9 ± 0.134 | 645 ± 42.3 ng/L | 63.4 ± 5.6 ng/L | 46.8% | 17.5 ± 2.84 % | 55% | 32.1 ± 9.7 % | – | 1.6 | 4.5 | 1.8 | 2490 ± 437 ng/g | 1270 ± 234 ng/g | 247 ± 87.5 ng/g | 1530 ± 581 ng/mL | 285 ± 105 ng/mL | 136 ± 60.4 ng/mL | –
3 | COc1cc(/C=C/C(=O)O[C@H]2C[C@H]3CC[C@]2(C)C3(C)C)ccc1O [D-bornyl ferulate, reference compound] | 21.7 ± 4.35 | 40.9% | 2.84 ± 0.323 | 13.8 ± 0.574 | 658 ± 23.6 ng/L | 64.8 ± 5.8 ng/L | 46.5% | 17.6 ± 4.59 % | 36.4% | 45.4 ± 2.64 % | 1.94 ± 0.19 | 0.52 | 5 | 5.8 | 1490 ± 219 ng/g | 701 ± 136 ng/g | 276 ± 81.3 ng/g | 2890 ± 671 ng/mL | 138 ± 55 ng/mL | 47.1 ± 21.6 ng/mL | Infarction area [7]: 21.68 ± 2.80 %
4 | CC(=O)Oc1ccccc1C(=O)O [Aspirin, aspirin, reference compound] | 22.7 ± 4.05 | 38% | 2.64 ± 0.199 | 12.2 ± 0.742 | 647 ± 45.2 ng/L | 62.9 ± 11.5 ng/L | 54.1% | 14.8 ± 3.99 % | 40.8% | 41.3 ± 1.53 % | – | – | – | – | – | – | – | – | – | – | –
5 | COc1cc(CCC(=O)O[C@H]2C[C@H]3CC[C@]2(C)C3(C)C)c(Br)cc1O [Compound D] | 19.4 ± 4.61 | 47.1% | 2.63 ± 0.312 | 13.3 ± 0.354 | 562 ± 34.2 ng/L | 53.4 ± 8.9 ng/L | 55.3% | 14.7 ± 7.42 % | 34.6% | 46.7 ± 9.8 % | – | 1.6 | 4.6 | 4 | 2260 ± 323 ng/g | 1430 ± 285 ng/g | 485 ± 125 ng/g | 1400 ± 236 ng/mL | 312 ± 115 ng/mL | 120 ± 22.7 ng/mL | –
6 | CC1(C)[C@@H]2CC[C@@]1(C)[C@@H](OC(=O)CCc1ccc(O)c(OC(F)(F)F)c1)C2 [Compound E] | 19.8 ± 3.61 | 46% | 2.73 ± 0.405 | 13.5 ± 1.183 | 573 ± 43.0 ng/L | 64.3 ± 8.1 ng/L | 46.2% | 17.7 ± 5.46 % | 39.1% | 43.5 ± 8.4 % | – | 3.4 | 3.5 | 3.7 | 3020 ± 527 ng/g | 959 ± 337 ng/g | 314 ± 56.6 ng/g | 887 ± 222 ng/mL | 274 ± 102 ng/mL | 84.6 ± 42.3 ng/mL | –
